Measured values reported in US7090846B2 (priority 1999, dated 2006).

How the values were obtained:
[1] = tested on: MCF-7, or PC3 cells; details: tumor cell cultures, in vitro; for inhibition on the colony formation: serial dilutions, vs untreated control; for comparison among the conjugates: inhibition on the colony formation: ranking among tested conjugates
Protocol: (§1) Cell Lines Used in the Experiments: • P388 mouse lymphocytic leukemia cell line, originated from Arthur D. Little Inc., Cambridge, Mass., USA, in vitro established in the National Institute of Oncology, Budapest, Hungary (Cancer Treat. Rep. 1986; 70: 279–284); • MCF-7 humane breast cancer cell line, originated from American Type Culture Collection; • PC3 humane prostate cancer cell line, originated from American Type Culture Collection;
MCF-7, or PC3 cells were plated into petri dishes, then in adequate medium and conditions, were incubated the cells with serial dilutions of the different polycation bioconjugates, prepared according to the invention. The colonies, consisting minimum 30 cells were then counted and the obtained values of three parallel petri dishes were averaged. Relative cloning efficiency was calculated by taking the control values as 100 per cent. (Cancer Detection and Prevention, 20(2): 146–152, 1996).

[2] = tested on: tumor cell cultures (P388, MCF-7, PC3); details: in vitro; for inhibition on the cell proliferation: serial dilutions, vs untreated control; for comparison among the conjugates: inhibition on the cell proliferation: ranking among tested conjugates
Text: as §1
Sulforodamine B (SRB) assay: approximately one to two thousand cells were put into each well of the special, small plastic tray (micro-well-plates). The cells were incubated in adequate medium and conditions and after adhering to the surface, were treated with serial dilutions of the different polycation bioconjugates, prepared according to the invention. At the end of the experiment the cells were fixed, stained with SRB, and the optical density, which is in direct proportion to the cell proliferation, was read in a CLS 962 ELISA microplate reader. Relative inhibition of proliferation was calculated by taking the control values as 100 per cent. (Cancer Detection and Prevention, 20(2): 146–152, 1996).
Cell counting method, with Neubauer-type chamber: in suspension cultures of exponentially growing cells, which were in adequate medium and conditions, were treated with serial dilutions of the different polycation bioconjugates, prepared according to the invention, and 24- and 48 hours following the treatment the cells were stained with tripan-blue, the treated and control cells were counted in a modified Neubauer-type hemocytometer chamber. Relative inhibition of proliferation was calculated by taking the control values as 100 per cent.

[3] = tested on: transplantable rodent tumors (P-388 lymphoid leukemia, S-180 sarcoma); details: mouse, in vivo
Text: The tumor growth inhibitory effect of the polycation bioconjugates was studied on the following transpalatable rodent tumors: • P-388 lymphoid leukemia cells, originated from Cambridge, Mass., USA, were transplanted i.p. and s.c. into animals: BDF1 inbred male mice, weighing 22–24 g, specified pathogen free (SPF) breedings; • S-180 sarcoma, originated from Chester Beatty I., London, were transplanted s.c. into animals: BDFI inbred male mice, weighing 22–24 g, specified pathogen free (SPF) breedings.

Row | Substance | inhibition on the colony formation [1] | inhibition on the cell proliferation [2] | inhibitory effect on transplantable rodent tumors (mean tumor volumes, tumor growth curves) [3] | comparison among the conjugates: inhibition on the colony formation [1] | comparison among the conjugates: inhibition on the cell proliferation [2]
1 | cholesterol-hemisuccinyl-poly-(ε)-L-lysine-hydrogen-bromide | dose dependent inhibition | dose dependent inhibition | significant inhibitory effect | – | –
2 | palmitoyl-poly-(ε)-L-lysine-hydrogen-bromide | dose dependent inhibition | dose dependent inhibition | significant inhibitory effect | most effective inhibition | most effective inhibition
3 | poly-(ε)-L-lysine-cisplatin-hydrogen-bromide | dose dependent inhibition | dose dependent inhibition | – | most effective inhibition | most effective inhibition
